“Also recorded” adds a separate entry of the source.
Columns and labels:
[1] = tested on: PANC1 cells; assay: Anchorage-independent (soft agar) growth assay in PANC1 cells; assay type: cell-based; conditions: increasing concentrations
Procedure: (§1) The ability to form colonies suspended in soft agar is a characteristic of cancer cells. By using the stable cell lines established above, an anchorage-independent assay in soft agar was conducted. 2.5% and 1.25% agar were used to prepare the bottom and top layers of the soft agar, respectively. The bottom agar was added to each well of a 6-well plate. 2×10^5 cells for each cell line were then added and mixed into top agar solution and layered on top of the bottom layer. The plates were incubated for 10-20 days at 37° C. and 5% CO2. Images were captured using a Canon EOS Rebel T3i Digital SLR camera (Canon, Woodridge, IL) and quantification of colony size and number was performed using ImageJ. […] A soft agar experiment was also performed to determine the effect of compound (IIa) on colony growth.

[2] = tested on: HT29 cells; assay: HT29 subcutaneous xenograft tumor efficacy study in NSG mice; assay type: in vivo; conditions: 20 mg/kg intraperitoneally 3×/week, vs vehicle control, n=4
Procedure: (§2) NSG (NOD scid gamma) mice were obtained from the In Vivo Therapeutics Core at Indiana University School of Medicine. After acclimation for 7 days, NSG mice (6-8 weeks old) were xenografted with mycoplasma-free PANC1 or HT29 cells subcutaneously (1×10^7 PANC1 or 3×10^6 HT29 cells used per mouse in 0.2 ml of a 1:1 mix of phosphate-buffered saline and MATRIGEL™) (BD Biosciences, San Jose, CA). Mice were randomized when tumor volumes reached about 100 mm^3. Mice were treated with either vehicle control or 20 mg/kg of compound (Ia) (drug stock dissolved in 1:1 CREMOPHOR™:ethanol solution) intraperitoneally 3 times per week. Tumor volumes and body weights were measured twice a week. The study was performed in accordance with the guidelines and standards of the Institutional Animal Care and Use Committee (IACUC). […] NSG (NOD scid gamma) mice were obtained from the In Vivo Therapeutics Core at Indiana University School of Medicine. After acclimation for 7 days, NSG mice (6-8 weeks old) were xenografted with mycoplasma-free PANC1 or HT29 cells subcutaneously (1×10^7 PANC1 or 3×10^6 HT29 cells used per mouse in 0.2 ml of a 1:1 mix of phosphate-buffered saline and MATRIGEL™) (BD Biosciences, San Jose, CA). Mice were randomized when tumor volumes reached about 100 mm^3. […] Tumor volumes and body weights were measured twice a week. […]

[3] = tested on: HT29 cells; assay: Anchorage-independent (soft agar) growth assay in HT29 cells; assay type: cell-based; conditions: increasing concentrations
Procedure: as §1

[4] = tested on: PANC1 cells; assay: PANC1 subcutaneous xenograft tumor efficacy study in NSG mice; assay type: in vivo; conditions: 20 mg/kg intraperitoneally 3×/week, vs vehicle control, n=4
Procedure: as §2

[5] = target: T1, PRMT5 (Homo sapiens, UniProt O14744); assay: AlphaLISA PRMT5 methylation assay (biotin-histone H4R3, SAM); assay type: biochemical; conditions: PRMT5 methylation of histone H4R3, in vitro; read-out: IC50 using AlphaLISA
T1 construct: Flag; made in house; host or cells: 293 cells
Procedure: FIG. 1 is a schematic illustration of the AlphaLISA technique for the identification of small-molecule PRMT5 inhibitors. Biotinylated substrate (histone H4) is incubated with PRMT5 and methyl donor, S-adenosyl-1-methionine (SAM). PRMT5 symmetrically dimethylates the third arginine (R3) on biotin-H4 to form biotin-H4R3me2. This product is recognized by Acceptor beads specific for this methylation site. Donor beads have a streptavidin tag and bind to biotin-H4. Interaction between the Acceptor and Donor beads emits a chemiluminescent signal, which is detected by an ENVISION™ Reader (PerkinElmer, Waltham, MA). The methylation activity of PRMT5 is proportional to the intensity of this signal.
In order to identify PRMT5 inhibitors, the AlphaLISA technique (PerkinElmer, Waltham, MA) was adapted to an assay that could precisely quantify PRMT5 dimethylation of its substrate in a 384-well HTS platform (FIG. 1). The AlphaLISA high-throughput screen comprises incubating a biotinylated substrate (e.g., histone H4), PRMT5, and a methyl donor (e.g., S-adenosyl-1-methionine (SAM)); PRMT5 dimethylates the biotinylated substrate and the dimethylated biotinylated substrate is recognized by Acceptor beads specific for the methylation site. Donor beads comprising a tag (e.g., streptavadin) bind to the biotinylated substrate, and interaction between the Acceptor beads and Donor beads emits a signal (e.g., chemiluminescent signal), which can be detected. The methylation activity of PRMT5 is proportional to the intensity of the signal.
In one embodiment of the method used to identify the compounds disclosed herein, PRMT5 enzyme was purified with anti-Flag-M2 beads (Sigma-Aldrich, St. Louis, MO) from 293 cells overexpressing the Flag-PRMT5 protein (Wei et al., Proc Natl Acad Sci USA, 2013; 110: 13516-13521). The enzyme prep was diluted at 1:10 in assay buffer (30 mM Tris, pH 8.0, 1 mM DTT, 0.01% BSA, 0.01% Tween-20) before use. […] The plates were read using an ENVISION™ Reader (PerkinElmer, Waltham, MA).

[6] = tested on: NF-κB; assay: NF-κB luciferase assay in HT29 cells; assay type: cell-based; conditions: increasing concentrations
Source text: (§3) Previously, it was discovered that PRMT5 activates NF-κB through methylation of its p65 subunit in HEK293 cells (Wei et al., Proc Natl Acad Sci USA, 2013; 110: 13516-13521; Wei et al., Cell Cycle, 2013; 13: 32-41). As shown in FIGS. 11A and 11B, overexpression of PRMT5 enhances NF-κB activity, while PRMT5 knockdown causes the opposite effect in both PANC1 (FIG. 11A) and HT-29 (FIG. 11B) cells. To determine if compound (IIa) decreases NF-κB activity, cells transfected with a NF-κB luciferase construct were treated with increasing concentrations of compound (IIa) or the control compound EPZ015666.

[7] = tested on: NF-κB; assay: NF-κB luciferase assay in PANC1 cells; assay type: cell-based; conditions: increasing concentrations
Source text: as §3

T1 sequence (O14744 whole entry): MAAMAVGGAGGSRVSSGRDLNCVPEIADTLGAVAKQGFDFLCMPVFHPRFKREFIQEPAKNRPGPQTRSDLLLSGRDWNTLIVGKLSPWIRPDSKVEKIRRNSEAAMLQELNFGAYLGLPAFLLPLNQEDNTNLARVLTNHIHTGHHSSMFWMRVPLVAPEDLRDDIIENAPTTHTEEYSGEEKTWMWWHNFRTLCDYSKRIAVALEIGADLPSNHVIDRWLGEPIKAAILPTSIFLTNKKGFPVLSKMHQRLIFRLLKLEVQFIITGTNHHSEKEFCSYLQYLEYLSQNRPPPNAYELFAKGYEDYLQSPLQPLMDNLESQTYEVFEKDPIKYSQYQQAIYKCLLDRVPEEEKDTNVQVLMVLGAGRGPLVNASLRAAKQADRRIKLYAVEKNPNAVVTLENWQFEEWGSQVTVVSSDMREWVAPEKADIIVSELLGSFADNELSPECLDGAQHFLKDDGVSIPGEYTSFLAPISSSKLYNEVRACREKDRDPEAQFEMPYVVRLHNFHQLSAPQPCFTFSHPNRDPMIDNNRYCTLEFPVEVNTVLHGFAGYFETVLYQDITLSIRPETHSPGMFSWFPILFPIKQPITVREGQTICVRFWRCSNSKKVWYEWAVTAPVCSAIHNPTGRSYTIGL
T1 sequence (Q9BQA1 whole entry partner): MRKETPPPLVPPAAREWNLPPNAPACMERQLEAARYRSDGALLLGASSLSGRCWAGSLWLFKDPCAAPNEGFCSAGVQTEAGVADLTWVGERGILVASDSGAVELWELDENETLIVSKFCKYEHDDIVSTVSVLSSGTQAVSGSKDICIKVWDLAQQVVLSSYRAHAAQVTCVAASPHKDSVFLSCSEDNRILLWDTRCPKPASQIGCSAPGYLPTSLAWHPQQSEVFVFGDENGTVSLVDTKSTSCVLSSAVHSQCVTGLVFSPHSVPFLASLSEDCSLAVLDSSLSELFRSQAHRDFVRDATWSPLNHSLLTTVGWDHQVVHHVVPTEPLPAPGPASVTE

- IC50 [5]: ~7.5 µM
Compound: Cc1ccc(Nc2nc(NCCN(C)C)nc3c2cnn3-c2ccccc2)cc1C [compound (IIa)]
- anchorage-independent growth / colony formation, PANC1 (PDAC) [1]: strongly inhibited colony formation; also recorded: significant decrease
- tumor growth (tumor volume), HT29 xenograft [2]: significant tumor inhibition effect; also recorded: inhibition of tumor growth
- anchorage-independent growth / colony formation, HT29 (CRC) [3]: strongly inhibited colony formation; also recorded: significant decrease
- tumor growth (tumor volume), PANC1 xenograft [4]: significant tumor inhibition effect; also recorded: inhibition of tumor growth
- NF-κB activation (luciferase), HT29 [6]: corresponding decrease in NF-κB activation
- NF-κB activation (luciferase), PANC1 [7]: corresponding decrease in NF-κB activation
